Source: patent US10259808B2 (Genentech, Inc., priority 2015, dated 2019)

What follows are compounds tested against T1, RORc ligand binding domain (Homo sapiens, UniProt P51449) (assay: In vitro RORc ligand binding assay (25-[3H]hydroxycholesterol displacement)).
T1 sequence (P51449 269-508 limits assumed): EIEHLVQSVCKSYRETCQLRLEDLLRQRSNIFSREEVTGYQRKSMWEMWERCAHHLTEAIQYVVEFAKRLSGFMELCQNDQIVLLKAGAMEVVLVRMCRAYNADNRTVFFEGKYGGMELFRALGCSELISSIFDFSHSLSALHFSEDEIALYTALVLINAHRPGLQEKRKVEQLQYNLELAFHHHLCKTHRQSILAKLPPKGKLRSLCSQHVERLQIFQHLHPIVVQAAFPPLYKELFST
`C[C@H]1CC[C@H](c2ccccc2)S(=O)(=O)N1Cc1cc(F)c([C@]2(c3nn(C)c(=O)o3)C[C@@H](O)C2)cc1F` [Example 146, cis 5-[1-[2,5-difluoro-4-[[(3S,6R)-3-methyl-1,1-dioxo-6-phenyl-thiazinan-2-yl]methyl]phenyl]-3-hydroxy-cyclobutyl]-3-methyl-1,3,4-oxadiazol-2-one] gave an IC50 of 17.6 nM. With `Cc1ccn(C(=O)C2(c3cc(F)c(CN4[C@@H](C)CC[C@H](c5ccccc5)S4(=O)=O)cc3F)CCOCC2)n1` [Example 38, [4-[2,5-difluoro-4-[[(3S,6R)-3-methyl-1,1-dioxo-6-phenyl-thiazinan-2-yl]methyl]phenyl]tetrahydropyran-4-yl]-(3-methylpyrazol-1-yl)methanone] the IC50 was 35 nM. With `C[C@H]1CC[C@H](c2ccccc2)S(=O)(=O)N1Cc1cc(F)c([C@]2(c3cn(C)c(=O)o3)C[C@](C)(O)C2)cc1F` [Example 159, 5-[1-[2,5-difluoro-4-[[(3S,6R)-3-methyl-1,1-dioxo-6-phenyl-thiazinan-2-yl]methyl]phenyl]-3-hydroxy-3-methyl-cyclobutyl]-3-methyl-oxazol-2-one] the IC50 was 2.8 nM. `C[C@H]1CC[C@H](c2ccccc2)S(=O)(=O)N1Cc1cc(F)c([C@]2(c3noc(=O)[nH]3)C[C@@](C)(O)C2)cc1F` (racemic) [Example 175, 3-[1-[2,5-difluoro-4-[[rac-(3S,6R)-3-methyl-1,1-dioxo-6-phenyl-thiazinan-2-yl]methyl]phenyl]-3-hydroxy-3-methyl-cyclobutyl]-4H-1,2,4-oxadiazol-5-one] was tested, and the IC50 was 62 nM. With `C[C@H]1CC[C@H](c2ccccc2)S(=O)(=O)N1Cc1cc(F)c(C2(C(=O)NCC3COC3)CCOCC2)cc1F` [Example 346, 4-[2,5-difluoro-4-[[(3S,6R)-3-methyl-1,1-dioxo-6-phenyl-thiazinan-2-yl]methyl]phenyl]-N-(oxetan-3-ylmethyl)tetrahydropyran-4-carboxamide] the IC50 was 47.4 nM. `C[C@H]1CC[C@H](c2ccccc2)S(=O)(=O)N1Cc1ccc(C2(NCc3ncccn3)CCOCC2)cc1F` [Example 67, 4-[3-fluoro-4-[[(3S,6R)-3-methyl-1,1-dioxo-6-phenyl-thiazinan-2-yl]methyl]phenyl]-N-(pyrimidin-2-ylmethyl)tetrahydropyran-4-amine] was tested, and the IC50 was 9.3 nM. `C[C@H]1CC[C@H](c2ccccc2)S(=O)(=O)N1Cc1cc(F)c(C2(c3n[nH]c(=O)o3)CC(F)(F)C2)cc1F` [Example 126, 5-[1-[2,5-difluoro-4-[[(3S,6R)-3-methyl-1,1-dioxo-6-phenyl-thiazinan-2-yl]methyl]phenyl]-3,3-difluoro-cyclobutyl]-3H-1,3,4-oxadiazol-2-one] showed an IC50 of 2.7 nM. `C[C@H]1CC[C@H](c2ccccc2)S(=O)(=O)N1Cc1cc(F)c([C@]2(c3nnc[nH]3)C[C@](C)(O)C2)cc1F` [Example 145, trans 3-[2,5-difluoro-4-[[(3S,6R)-3-methyl-1,1-dioxo-6-phenyl-thiazinan-2-yl]methyl]phenyl]-1-methyl-3-(4H-1,2,4-triazol-3-yl)cyclobutanol] gave an IC50 of 7 nM. For `C[C@H]1CC[C@H](c2ccccc2)S(=O)(=O)N1Cc1cc(F)c([C@]2([C@H]3CNC(=O)O3)C[C@](C)(O)C2)cc1F` (racemic) [Example 172, rac-(5S)-5-[1-[2,5-difluoro-4-[[rac-(3S,6R)-3-methyl-1,1-dioxo-6-phenyl-thiazinan-2-yl]methyl]phenyl]-3-hydroxy-3-methyl-cyclobutyl]oxazolidin-2-one], the IC50 was 51.9 nM. `C[C@H]1CC[C@H](c2ccccc2)S(=O)(=O)N1Cc1cc(F)c(C2(N(C)Cc3cocn3)CCOCC2)cc1F` [Example 81, 4-[2,5-difluoro-4-[[(3S,6R)-3-methyl-1,1-dioxo-6-phenyl-thiazinan-2-yl]methyl]phenyl]-N-methyl-N-(oxazol-4-ylmethyl)tetrahydropyran-4-amine] gave an IC50 of 8.8 nM. With `C[C@H]1CC[C@H](c2ccccc2)S(=O)(=O)N1Cc1cc(F)c([C@]2(c3n[nH]c(=O)o3)C[C@@](O)(C(F)(F)F)C2)cc1F` [Example 149, trans 5-[1-[2,5-difluoro-4-[[(3S,6R)-3-methyl-1,1-dioxo-6-phenyl-thiazinan-2-yl]methyl]phenyl]-3-hydroxy-3-(trifluoromethyl)cyclobutyl]-3H-1,3,4-oxadiazol-2-one] the IC50 was 5.3 nM. `C[C@H]1CC[C@H](c2ccccc2)S(=O)(=O)N1Cc1ccc(C2(C(=O)NCc3cnccn3)CCOCC2)cc1F` [Example 10] was tested, and the IC50 was 173 nM. With `C[C@H]1CC[C@@H](c2ccccc2)S(=O)(=O)N1Cc1cc(F)c([C@]2(c3c[nH]c(=O)o3)C[C@@](O)(C3(C)CC3)C2)cc1F` (racemic) [Example 166, 5-[1-[2,5-difluoro-4-[[rac-(3S,6S)-3-methyl-1,1-dioxo-6-phenyl-thiazinan-2-yl]methyl]phenyl]-3-hydroxy-3-(1-methylcyclopropyl)cyclobutyl]-3H-oxazol-2-one] the IC50 was 15.5 nM. For `C[C@H]1CC[C@H](c2ccccc2)S(=O)(=O)N1Cc1cc(F)c([C@]2(Cn3ncccc3=O)C[C@](C)(O)C2)cc1F` (racemic) [Example 183, 2-[[1-[2,5-difluoro-4-[[rac-(3S,6R)-3-methyl-1,1-dioxo-6-phenyl-thiazinan-2-yl]methyl]phenyl]-3-hydroxy-3-methyl-cyclobutyl]methyl]pyridazin-3-one], the IC50 was 170 nM. Compound `C[C@H]1CC[C@H](c2ccccc2)S(=O)(=O)N1Cc1cc(F)c(C2(N3CCOC3=O)CCOCC2)cc1F` [Example 102, 3-[4-[2,5-difluoro-4-[[(3S,6R)-3-methyl-1,1-dioxo-6-phenyl-thiazinan-2-yl]methyl]phenyl]tetrahydropyran-4-yl]oxazolidin-2-one] has an IC50 of 55.3 nM. Work on `C[C@H]1CC[C@H](c2ccccc2)S(=O)(=O)N1Cc1cc(F)c(C2(NCc3cnccn3)COC2)cc1F` [Example 89, 3-[2,5-difluoro-4-[[(3S,6R)-3-methyl-1,1-dioxo-6-phenyl-thiazinan-2-yl]methyl]phenyl]-N-(pyrazin-2-ylmethyl)oxetan-3-amine] yielded an IC50 of 7.1 nM. Compound `C[C@H]1CC[C@H](c2ccccc2)S(=O)(=O)N1Cc1cc(F)c(C2(c3nnc[nH]3)CC(=O)C2)cc1F` [Example 113, 3-[2,5-difluoro-4-[[(3S,6R)-3-methyl-1,1-dioxo-6-phenyl-thiazinan-2-yl]methyl]phenyl]-3-(4H-1,2,4-triazol-3-yl)cyclobutanone] has an IC50 of 8.1 nM. In the case of `C[C@H]1CC[C@H](c2ccccc2)S(=O)(=O)N1Cc1cc(F)c(C2(c3nnc(CO)o3)CCOCC2)cc1F` [Example 57, [5-[4-[2,5-difluoro-4-[[(3S,6R)-3-methyl-1,1-dioxo-6-phenyl-thiazinan-2-yl]methyl]phenyl]tetrahydropyran-4-yl]-1,3,4-oxadiazol-2-yl]methanol], the IC50 is reported as 28.2 nM. For `C[C@H]1CC[C@H](c2ccccc2)S(=O)(=O)N1Cc1cc(F)c([C@]2(c3c[nH]c(=O)o3)C[C@@](O)(C3CC3)C2)cc1F` [Example 165, 5-[3-cyclopropyl-1-[2,5-difluoro-4-[[(3S,6R)-3-methyl-1,1-dioxo-6-phenyl-thiazinan-2-yl]methyl]phenyl]-3-hydroxy-cyclobutyl]-3H-oxazol-2-one], the IC50 was 6.7 nM. `Cc1nnc(C2(c3ccc(CN4[C@@H](C)CC[C@H](c5ccccc5)S4(=O)=O)c(F)c3)CCOCC2)[nH]1` [Example 47, (3S,6R)-2-[[2-fluoro-4-[4-(5-methyl-4H-1,2,4-triazol-3-yl)tetrahydropyran-4-yl]phenyl]methyl]-3-methyl-6-phenyl-thiazinane 1,1-dioxide] gave an IC50 of 114 nM. In the case of `C[C@H]1CC[C@H](c2ccccc2)S(=O)(=O)N1Cc1cc(F)c(C2(c3nnc[nH]3)CCOCC2)cc1F` [Example 50, (3S,6R)-2-[[2,5-difluoro-4-[4-(4H-1,2,4-triazol-3-yl)tetrahydropyran-4-yl]phenyl]methyl]-3-methyl-6-phenyl-thiazinane 1,1-dioxide], the IC50 is reported as 28.6 nM. In the case of `C[C@H]1CC[C@H](c2ccccc2)S(=O)(=O)N1Cc1ccc(C2(NCc3ncco3)CCOCC2)cc1F` [Example 71, 4-[3-fluoro-4-[[(3S,6R)-3-methyl-1,1-dioxo-6-phenyl-thiazinan-2-yl]methyl]phenyl]-N-(oxazol-2-ylmethyl)tetrahydropyran-4-amine], the IC50 is reported as 2.5 nM. Compound `C[C@H]1CC[C@H](c2ccccc2)S(=O)(=O)N1Cc1ccc(C2(NCc3cocn3)CCOCC2)cc1F` [Example 65, 4-[3-fluoro-4-[[(3S,6R)-3-methyl-1,1-dioxo-6-phenyl-thiazinan-2-yl]methyl]phenyl]-N-(oxazol-4-ylmethyl)tetrahydropyran-4-amine] has an IC50 of 3.6 nM. Compound `C[C@H]1CC[C@H](c2ccccc2)S(=O)(=O)N1Cc1cc(F)c(C2(NCc3cocn3)COC2)cc1F` [Example 85, 3-[2,5-difluoro-4-[[(3S,6R)-3-methyl-1,1-dioxo-6-phenyl-thiazinan-2-yl]methyl]phenyl]-N-(oxazol-4-ylmethyl)oxetan-3-amine] has an IC50 of 4.1 nM. For `C[C@H]1CC[C@H](c2ccccc2)S(=O)(=O)N1Cc1cc(F)c([C@]2(c3n[nH]c(=O)o3)C[C@H](CC#N)C2)cc1F` [Example 153, trans 2-[3-[2,5-difluoro-4-[[(3S,6R)-3-methyl-1,1-dioxo-6-phenyl-thiazinan-2-yl]methyl]phenyl]-3-(2-oxo-3H-1,3,4-oxadiazol-5-yl)cyclobutyl]acetonitrile], the IC50 was 8.7 nM. `C[C@H]1CC[C@H](c2ccccc2)S(=O)(=O)N1Cc1cc(F)c(C2(NC(=O)c3ncc[nH]3)COC2)cc1F` (stereo in doubt) [Example 133, N-[3-[2,5-difluoro-4-[[(3S,6R)-3-methyl-1,1-dioxo-6-phenyl-thiazinan-2-yl]methyl]phenyl]oxetan-3-yl]-1H-imidazole-2-carboxamide] showed an IC50 of 133 nM. For `C[C@H]1CC[C@H](c2ccccc2)S(=O)(=O)N1Cc1cc(F)c(C2(c3c[nH]c(=O)o3)CC(O)(CC3CC3)C2)cc1F` (mixture of isomers) [Example 184, 5-[3-(cyclopropylmethyl)-1-[2,5-difluoro-4-[[rac-(3S,6R)-3-methyl-1,1-dioxo-6-phenyl-thiazinan-2-yl]methyllphenyl]-3-hydroxy-cyclobutyl]-3H-oxazol-2-one], the IC50 was 6.2 nM.
